The subject of data set [1] is MOLT-4 cells. The experiment in a line: Cyclic GMP assay in MOLT-4 cells. Format: cell-based, human. The following applies: for activity in cGMP dose-response curves (FIG. 1): evaluated from 1 to 1000 μgs/ml in MOLT-4 cells. An excerpt:
This assay measures the ability of a peptide of this invention to bind to the cell membrane receptor of the intact MOLT-4 cell and selectively stimulate production of cyclic GMP, as does human thysplenin and human thymopentin.
The MOLT-4 cell line was obtained from the American Type Culture Collection of Rockville, Md. MOLT-4 cells were freshly seeded and grown for 3 days with harvesting as described in T. Audhya et al, Arch. Biochem Biophys., 234: 167-177 (1984). The cells were washed 3 times in PBS and resuspended in RPMI 1640 at a concentration of 1.0×10^7 cells/ml and were allowed to equilibrate at 37° C. for 30 minutes before the addition of the test tetrapeptides and pentapeptides (25 ul) and control peptides. The incubation was allowed to proceed in a shaking water bath for 4-5 minutes and was then terminated by addition of 1 ml ice-cold TCA (10 percent).
The cells in TCA were homogenized and sonicated to release cyclic nucleotide. The suspension was centrifuged at 3000×g for 20 minutes at 4° C. The resulting precipitate was dissolved in 0.1N NaOH to determine the protein content. TCA was removed from the supernatant fraction by extracting 4 times with 5 ml of water-saturated diethyl ether. After the final extraction, the remaining traces of ether were removed by heating for 10 minutes in a 50° C. water bath. After lyophilization the sample was reconstituted in 50 mM acetate buffer (pH 6.2) for radioimmunoassay of cyclic GMP.
A threshold activity was determined for each peptide tested. This is defined as the lowest concentration of the test peptide which induced an intracellular level of cyclic GMP greater than two standard deviations above the control. The controls had intracellular cyclic GMP values of less than 0.5 picomoles/ml (mean±standard deviation). Test results were considered positive if the level of cyclic GMP was greater than 2 times (2 standard deviations) that determined for the parallel negative control.

The nature of data set [2]: Enzymatic stability in rat intestinal juice. To be noted: 37° C., HPLC.
Experimental: To illustrate the stability of a peptide of the present invention against degradation by intestinal and serum enzymes, an exemplary peptide Acetyl-Arg-Pro-Asp-Val-NH2 was incubated at 37° C. in rat intestinal juice and human serum for up to 120 minutes. Similarly treated for comparison were the tetrapeptide Arg-Lys-Asp-Val and thymopentin.
Data set [3] in a line: Enzymatic stability in human serum. To be noted: 37° C., HPLC. Type of data set: in vitro ADME. From the text: Thymopentin was 50% degraded at about 20 seconds.
For the next data set, the system named is BP8 murine tumor cells. Kind of data set: BP8 tumor inhibition assay. Type of data set: in vivo, C3H mice. To be noted: 30 ng or 30 μg subcutaneously once per week, vs glycine-raffinose vehicle. How it is done: An assay is performed using normal healthy C3H laboratory mice. The mice, in groups of 12 to 20, are injected subcutaneously with either 30 ng or 30 μg of a peptide of the present invention once per week. This peptide (acetyl-Arg-Pro-Val-Ala-NH2) called splenoralin was administered in citrate buffer containing 1% glycine and 2% D-raffinose pentahydrate, as described in pending United States patent application Ser. No. 336,236, incorporated herein by reference. A control group of mice were injected similarly with 30 μg of the glycine-raffinose vehicle without the peptide.
Four weeks after the initiation of these weekly injections, each mouse was inoculated intradermally with 5×10^6 BP8 murine tumor cells. BP8 is a conventional benzpyrene induced murine tumor. Once every week thereafter, each mouse is injected with the same amount of either the peptide formulation or the vehicle alone.
FIG. 3 indicates the percent of mice in each group which are negative for the presence of BP8 tumors in the days after the inoculation of tumor cells. FIG. 4 indicates for the same experiment the maximum size of tumors in those mice that did develop tumors.

For data set [4], the system named is non-obese diabetic (NOD) mice. The experiment in a line: Diabetic mice assay. Type of data set: in vivo. The following applies: 1 mg/kg body weight one time a week from weaning, vs vehicle. From the text:
A strain of non-obese diabetic (NOD) laboratory mice maintained in Hopital Necker, Paris, France, have been bred in which the females spontaneously develop autoimmune disease of the pancreas. In the normal course of this disease in mice, the pancreatic cells are destroyed, resulting in loss of insulin production and diabetes mellitus. This mouse strain thus is a close model of Type I onset juvenile diabetes, which is normally treated with insulin replacement, but which can be typically slowed by immunosuppressive drugs, e.g., cyclosporin.
In this assay, groups of 12 to 20 NOD female mice are injected with 1 mg/kg body weight of a peptide of the present invention one time a week at weaning. This peptide (acetyl-Arg-Pro-Val-Ala-NH2) called splenoralin was administered the above-described formulation containing glycine and raffinose. A control group of mice were injected similarly with 1 mg of the glycine-raffinose vehicle without the peptide one time a week.

For data set [5] the following is noted: Kisfaludy et al 1983; cited from earlier work.
The next data set has as its system CEM cells. The following applies: cited from earlier work.
The test system of data set [6] is MOLT-4 cells. The following applies: cited from earlier work.
Where [7] appears, read: Table I, peptide concentration 1 μg/ml.
[8] abbreviates: Table I, peptide concentration 10 μg/ml.
Setting [9] is: Table I, peptide concentration 100 μg/ml.
Where [10] appears, read: Table I, peptide concentration 1000 μg/ml.
[11] abbreviates: Table II, peptide concentration 1 μg/ml.
Where [12] appears, read: Table II, peptide concentration 10 μg/ml.
Setting [13] is: Table II, peptide concentration 100 μg/ml.

Square brackets hold non-standard residues; d marks the D form. Ends that are not written are not given here. Peptide text beside a SMILES is read from it. Aib = CC(C)(N)C(=O)O

In the case of `CC(=O)N[C@@H](CCCNC(=N)N)C(=O)NC(C)(C)C(=O)N[C@@H](C)C(=O)N[C@H](C(N)=O)C(C)C` [Acetyl-Arg--Aib--Ala--Val--NH2, Acetyl-Arg-Aib-Ala-Val-NH2] (Ac-R[Aib]AV-NH2), the “cGMP Concentration” value in the data set with MOLT-4 cells [1] (setting [7]) is recorded as 18.78 picograms/ml; in the data set with MOLT-4 cells [1] (setting [8]), 30.45 picograms/ml; in the data set on MOLT-4 cells [1] (setting [9]) it was 36.17 picograms/ml; in the data set on MOLT-4 cells [1] (setting [10]) it was 39.48 picograms/ml.

Take `CC(=O)N[C@@H](CCCNC(=N)N)C(=O)NC(C)(C)C(=O)N[C@@H](CCC(=O)O)C(=O)N[C@H](C(N)=O)C(C)C` [Acetyl-Arg--Aib--Glu--Val--NH2, Acetyl-Arg-Aib-Glu-Val-NH2] (Ac-R[Aib]EV-NH2): the “cGMP Concentration” value in the data set with MOLT-4 cells [1] (setting [7]) is 3.7 picograms/ml; in the data set with MOLT-4 cells [1] (setting [8]) it was 11.0 picograms/ml; with MOLT-4 cells [1] (setting [9]) it was 17.7 picograms/ml; in the data set with MOLT-4 cells [1] (setting [10]), 24.9 picograms/ml.

`CC(=O)N[C@@H](CCCNC(=N)N)C(=O)N1CCC[C@H]1C(=O)N[C@@H](C)C(=O)N[C@H](C(N)=O)C(C)C` [Acetyl-Arg--Pro--Ala--Val--NH2, Acetyl-Arg-Pro-Ala-Val-NH2] (Ac-RPAV-NH2): the “cGMP Concentration” value with MOLT-4 cells [1] (setting [7]) was found to be 7.1 picograms/ml; with MOLT-4 cells [1] (setting [8]), 14.6 picograms/ml; in the data set on MOLT-4 cells [1] (setting [9]), 19.1 picograms/ml; in the data set with MOLT-4 cells [1] (setting [10]), 24.5 picograms/ml. The “activity in cGMP dose-response curves (FIG. 1)” value (“activity … (FIG. 1)” for short) in the data set on MOLT-4 cells [1] was “active”.

Regarding `CC(=O)N[C@@H](CCCNC(=N)N)C(=O)N1CCC[C@H]1C(=O)N[C@@H](CC(=O)O)C(=O)N[C@H](C(N)=O)C(C)C` [Acetyl-Arg--Pro--Asp--Val--NH2, Acetyl-Arg-Pro-Asp-Val-NH2] (Ac-RPDV-NH2), the “time remaining substantially undegraded” value in data set [2] (rat intestinal juice) and in data set [3] was “at least 120 seconds” in each case. Besides, the “cGMP Concentration” value in the data set with MOLT-4 cells [1] (setting [7]) turned out to be 4.55 picograms/ml; in the data set on MOLT-4 cells [1] (setting [8]), 8.99 picograms/ml; in the data set with MOLT-4 cells [1] (setting [9]) it was 19.62 picograms/ml; with MOLT-4 cells [1] (setting [10]), 24.09 picograms/ml.

Regarding `CC(=O)N[C@@H](CCCNC(=N)N)C(=O)N1CCC[C@H]1C(=O)N[C@@H](CCC(N)=O)C(=O)N[C@H](C(N)=O)C(C)C` [Acetyl-Arg--Pro--Gln--Val--NH2] (Ac-RPQV-NH2), the “cGMP Concentration” value turned out to be 18.75 picograms/ml in the data set with MOLT-4 cells [1] (setting [7]), 29.68 picograms/ml in the data set on MOLT-4 cells [1] (setting [8]), 34.98 picograms/ml in the data set on MOLT-4 cells [1] (setting [9]) and 40.23 picograms/ml in the data set on MOLT-4 cells [1] (setting [10]).

`CC(=O)N[C@@H](CCCNC(=N)N)C(=O)N1CCC[C@H]1C(=O)N[C@@H](CCC(=O)O)C(=O)N[C@H](C(N)=O)C(C)C` [Acetyl-Arg--Pro--Glu--Val--NH2, Acetyl-Arg-Pro-Glu-Val-NH2] (Ac-RPEV-NH2): the “cGMP Concentration” value amounted to 4.7 picograms/ml in the data set on MOLT-4 cells [1] (setting [7]), 9.41 picograms/ml in the data set on MOLT-4 cells [1] (setting [8]), 16.76 picograms/ml in the data set on MOLT-4 cells [1] (setting [9]) and 25.00 picograms/ml in the data set with MOLT-4 cells [1] (setting [10]).

In the case of `CC(=O)N[C@@H](CCCNC(=N)N)C(=O)N1CCC[C@H]1C(=O)N[C@H](C(=O)N[C@@H](C)C(N)=O)C(C)C` [Acetyl-Arg--Pro--Val--Ala--NH2, Acetyl-Arg-Pro-Val-Ala-NH2] (Ac-RPVA-NH2), in the data set with BP8 murine tumor cells, the “resistance to BP8 tumor growth (percent tumor negative, tumor size; FIG. 3, 4)” value was “enabled the mice to resist the spread and growth of the tumor cells”. Further, the “incidence of diabetes / survival in NOD female mice (FIG. 6)” value in data set [4] is “restored the immune function and allowed survival of a greater number of animals than did the placebo”. For the same compound, the “cGMP Concentration” value in the data set with MOLT-4 cells [1] (setting [11]) came to 7.77 picograms/ml; in the data set on MOLT-4 cells [1] (setting [12]), 17.39 picograms/ml; with MOLT-4 cells [1] (setting [13]), 24.47 picograms/ml. Also, the “activity in cGMP dose-response curves (FIG. 2)” value in the data set with MOLT-4 cells [1] (evaluated from 1 to 100 μgs/ml in MOLT-4 cells) is “active”.

For `CC(=O)N[C@@H](CCCNC(=N)N)C(=O)N1CCC[C@H]1C(=O)N[C@@H](CC(=O)O)C(=O)N1CCC[C@H]1C(N)=O` [Acetyl-Arg-Pro-Asp-Pro-NH2, reference compound] (Ac-RPDP-NH2), the “activity … (FIG. 1)” value with MOLT-4 cells [1] was “inactive”.

As for `CC(C)[C@H](NC(=O)[C@H](CC(=O)O)NC(=O)[C@H](CCCCN)NC(=O)[C@@H](N)CCCNC(=N)N)C(=O)O` [Arg-Lys-Asp-Val, reference compound] (H-RKDV-OH), the “time after which totally digested” value in data set [2] (rat intestinal juice and human serum, matrix of this value not stated) amounted to 25 s.

“Acetyl-Arg-Pro-beta-Asp-Gly-NH2 [Acetyl-Arg--Pro-β-Asp--Gly--NH2]”: the “cGMP Concentration” value with MOLT-4 cells [1] (setting [7]) was determined as 20.56 picograms/ml; in the data set on MOLT-4 cells [1] (setting [8]), 31.83 picograms/ml; in the data set on MOLT-4 cells [1] (setting [9]), 36.66 picograms/ml; in the data set on MOLT-4 cells [1] (setting [10]), 34.95 picograms/ml.

On to “Acetyl-Arg-Pro-β-D-Asp-Val-NH2 [Acetyl-Arg--Pro-β-D-Asp--Val--NH2]”, for which the “cGMP Concentration” value in the data set on MOLT-4 cells [1] (setting [7]) stood at 6.6 picograms/ml; with MOLT-4 cells [1] (setting [8]), 14.3 picograms/ml; in the data set with MOLT-4 cells [1] (setting [9]), 20.5 picograms/ml; with MOLT-4 cells [1] (setting [10]), 25.0 picograms/ml. Further, the “activity … (FIG. 1)” value with MOLT-4 cells [1] is “active”.

Take “Arg-Ala-Asp-Val (RADV; printed: Arg-Ala-Asp-Val)”: in data set [5], the “activity in in vitro E rosette test” value is on record as “drastically reduced activity”.

For “Arg-Lys-Ala-Val (RKAV; printed: Arg-Lys-Ala-Val)”, in data set [5], the “activity in in vitro E rosette test” value is given as “drastically reduced activity”.

In the case of “Arg-Lys-Glu-Val (RKEV; printed: Arg-Lys-Glu-Val)”, the “activity in in vitro E rosette test” value in data set [5] was “highly active”.

As to “RKDVY [Arg--Lys--Asp--Val--Tyr, Arg-Lys-Asp-Val-Tyr, reference compound]”, the “biological changes in CEM cells” value in the data set with CEM cells is “induce biological changes”. The “biological changes in MOLT-4 cells” value with MOLT-4 cells [6] is “induce biological changes”. The “cGMP Concentration” value with MOLT-4 cells [1] (setting [7]) was 6.4 picograms/ml; in the data set on MOLT-4 cells [1] (setting [8]), 18.3 picograms/ml; with MOLT-4 cells [1] (setting [9]), 20.8 picograms/ml; with MOLT-4 cells [1] (setting [10]), 21.9 picograms/ml; with MOLT-4 cells [1] (setting [11]), 3.55 picograms/ml; in the data set on MOLT-4 cells [1] (setting [12]), 13.56 picograms/ml. Further, the “cGMP Concentration” value with MOLT-4 cells [1] (setting [13]) was 18.70 picograms/ml; in the data set on MOLT-4 cells [1] (Table II, peptide concentration 1000 μg/ml), 24.85 picograms/ml.

With “thymopoietin: immunomodulatory protein isolated from bovine and human thymus (PEFLEDPSVLTKDKLKSELVANNVTLPAGEQRKDVYVQLYLQHLTARNR; Thymopoietin; UniProt P42166 2-50, looked up)”, the “biological changes in CEM cells” value with CEM cells is recorded as “induce biological changes”. The “biological changes in MOLT-4 cells” value in the data set on MOLT-4 cells [6] is recorded as “induce biological changes”.

The values are drawn from patent publication US5298490A, “Tetra and penta-peptides useful in regulating the immune system” (Immunobiology Research Institute, Inc., priority 1990, dated 1994).
